Measurements taken from US20220073536A1 (Rigel Pharmaceuticals, Inc., priority 2003, published 2022).
pIC50: −log10 of the molar value.

Experiments:
[1] = test system: cultured human mast cells (CHMC); assay: CHMC low cell density IgE activation: tryptase assay; type: cell-based; conditions: low cell density CHMC, IgE activation
In short: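 Fluorogenic readout of tryptase released into the supernatant (30 min substrate incubation, room temperature) measures degranulation. Cells were plated at low density (1000–1500/well, varied by donor) and triggered with anti-IgE for 30 min at 37 °C.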

[2] = test system: cultured human mast cells (CHMC); assay: CHMC low cell density ionomycin activation: tryptase assay; type: cell-based; conditions: low cell density CHMC, 3 pt, read-out: LD Tryptase, CHMC, Iono, 3 pt
[3] = Homo sapiens, Mast cell, tryptase release, 3 pt, read-out: LD Tryptase, CHMC, IgE, 3 pt
[4] = Homo sapiens, Mast cell, tryptase release
[5] = Homo sapiens, Mast cell, tryptase release, 8 pt, read-out: LD Tryptase, CHMC, IgE, 8 pt
[6] = tryptase release, 3 pt, read-out: LD Tryptase, CHMC, IgE, 3 pt
[7] = tryptase release, 8 pt, read-out: LD Tryptase, CHMC, IgE, 8 pt
[8] = Homo sapiens, Mast cell, tryptase, 3 pt, read-out: LD Tryptase, CHMC, IgE, 3 pt
[9] = Homo sapiens, Mast cell, tryptase
[10] = tryptase, 3 pt, read-out: LD Tryptase, CHMC, IgE, 3 pt
[11] = Homo sapiens, Mast cell, tryptase, 8 pt, read-out: LD Tryptase, CHMC, IgE, 8 pt

| SMILES | pIC50 [1, 3] | pIC50 [2, 4] | pIC50 [1, 8] | pIC50 [2, 9] | also measured |
| --- | --- | --- | --- | --- | --- |
| CN1C(=O)COc2cc(Nc3nc(Nc4ccc(-c5ncco5)cc4)ncc3F)ccc21 [Compound 244] | < 5.00 | < 5.00 | – | – | – |
| CN1C(=O)COc2ccc(Nc3nc(Nc4ccc(-c5ncco5)cc4)ncc3F)cc21 [Compound 245] | < 5.00 | < 5.00 | – | – | – |
| O=C1COc2ccc(Nc3nc(Nc4cccc(-c5cnco5)c4)ncc3F)cc2N1 [Compound 246] | > 5.00 | < 5.00 | – | – | pIC50 [1, 5]: > 5.00 |
| C[C@@H]1Oc2ccc(Nc3nc(Nc4cccc(-c5cnco5)c4)ncc3F)cc2NC1=O [Compound 247] | > 5.00 | < 5.00 | – | – | pIC50 [1, 5]: > 5.00 |
| O=C1Nc2ccc(Nc3nc(Nc4cccc(-c5ncco5)c4)ncc3F)cc2OC1CCO (stereo not drawn) [Compound 248] | > 5.00 | < 5.00 | – | – | pIC50 [1, 5]: > 5.00 |
| O=C1Nc2ccc(Nc3nc(Nc4ccc(-c5cnco5)cc4)ncc3F)cc2OC1CCO (stereo not drawn) [Compound 249] | > 5.00 | < 5.00 | – | – | pIC50 [1, 5]: < 5.00 |
| C[C@H]1Oc2ccc(Nc3nc(Nc4cccc(-c5cocn5)c4)ncc3F)cc2NC1=O [Compound 250] | > 5.00 | > 5.00 | – | – | pIC50 [1, 5]: > 5.00 |
| C[C@@H]1Oc2ccc(Nc3nc(Nc4cccc(-c5cocn5)c4)ncc3F)cc2NC1=O [Compound 251] | > 5.00 | < 5.00 | – | – | pIC50 [1, 5]: > 5.00 |
| COc1cc(Nc2ncc(F)c(Nc3ccc4c(c3)NCC(CCO)O4)n2)cc(OC)c1 (stereo not drawn) [Compound 253, N4-[3,4-Dihydro-2-(2-hydroxyethyl)-2H,4H-benz[1,4]oxazin-6-yl]-N2-(3,5-dimethoxyphenyl)-5-fluoro-2,4-pyrimidinediamine] | – | – | – | – | pIC50 [1, 6]: > 5.00; pIC50 [1, 7]: > 5.00; pIC50 ([2]; tryptase release): < 5.00 |
| CNC(=O)COc1cccc(Nc2ncc(F)c(Nc3ccc4c(c3)NC(=O)CS4)n2)c1 [Compound 254, 5-Fluoro-N2-[3-(N-methylamino)carbonylmethyleneoxyphenyl]-N4-(3-oxo-2H,4H-benzo[1,4]thiazin-6-yl)-2,4-pyrimidinediamine] | – | – | – | – | pIC50 [1, 6]: > 5.00; pIC50 [1, 7]: > 5.00; pIC50 ([2]; tryptase release): < 5.00 |
| Cc1cc(C)cc(Nc2ncc(F)c(Nc3ccc4c(c3)NCC(CCO)O4)n2)c1 (stereo not drawn) [Compound 255, N4-[2,3-Dihydro-2-(2-hydroxyethyl)-2H,4H-benz[1,4]oxazin-6-yl]-N2-(3,5-dimethylphenyl)-5-fluoro-2,4-pyrimidinediamine] | – | – | – | – | pIC50 [1, 6]: > 5.00; pIC50 [1, 7]: > 5.00; pIC50 ([2]; tryptase release): < 5.00 |
| COc1cc(Nc2ncc(F)c(Nc3ccc4c(c3)NC(=O)CS4)n2)cc(OC)c1 [Compound 256] | > 5.00 | < 5.00 | – | – | pIC50 [1, 5]: > 5.00 |
| COc1ccc(Nc2ncc(F)c(Nc3ccc4c(c3)NC(=O)CS4)n2)cc1Cl [Compound 257] | > 5.00 | < 5.00 | – | – | pIC50 [1, 5]: > 5.00 |
| CNC(=O)COc1cccc(Nc2ncc(F)c(Nc3ccc4c(c3)NCCS4)n2)c1 [Compound 258, N4-(3,4-Dihydro-2H,4H-benzo[1,4]thiazin-6-yl)-5-fluoro-N2-[3-(N-methylamino)carbonylmethyleneoxyphenyl]-2,4-pyrimidinediamine] | – | – | – | – | pIC50 [1, 6]: > 5.00; pIC50 [1, 7]: > 5.00; pIC50 ([2]; tryptase release): < 5.00 |
| CNC(=O)COc1cccc(Nc2ncc(F)c(Nc3ccc4c(c3)N(C)C(=O)CS4)n2)c1 [Compound 259, 5-Fluoro-N2-[3-(N-methylamino)carbonylmethyleneoxyphenyl]-N4-(4-methyl-3-oxo-2H-benzo[1,4]thiazin-6-yl)-2,4-pyrimidinediamine] | – | – | – | – | pIC50 [1, 6]: > 5.00; pIC50 [1, 7]: > 5.00; pIC50 ([2]; tryptase release): < 5.00 |
| COc1cc(Nc2ncc(F)c(Nc3ccc4c(c3)N(C)C(=O)CS4)n2)cc(OC)c1 [Compound 260] | > 5.00 | < 5.00 | – | – | pIC50 [1, 5]: > 5.00 |
| NC(=S)c1cccc(Nc2ncc(F)c(Nc3ccc4c(c3)NC(=O)CO4)n2)c1 [Compound 261, N2-(3-Benzothioamide)-5-fluoro-N4-(3-oxo-2H,4H-benz[1,4]oxazin-6-yl)-2,4-pyrimidinediamine] | – | – | – | – | pIC50 [1, 6]: > 5.00; pIC50 ([2]; tryptase release): < 5.00 |

| SMILES | pIC50 [1, 3] | pIC50 [2, 4] | pIC50 [1, 8] | pIC50 [2, 9] | also measured |
| --- | --- | --- | --- | --- | --- |
| NC(=S)c1cccc(Nc2ncc(F)c(Nc3ccc4c(c3)NC(=O)C(CCO)O4)n2)c1 (stereo not drawn) [Compound 262, N2-(3-Benzothioamide)-5-fluoro-N4-[2-(2-hydroxyethyl)-3-oxo-2H,4H-benz[1,4]oxazin-6-yl]-2,4-pyrimidinediamine] | – | – | – | – | pIC50 [1, 6]: > 5.00; pIC50 ([2]; tryptase release): < 5.00 |
| COc1cc(Nc2nc(Nc3ccc4oc(C(=O)O)cc4c3)ncc2F)cc(OC)c1 [Compound 382] | – | – | < 5.00 | < 5.00 | – |
| CNC(=O)COc1cccc(Nc2ncc(F)c(N(C)c3ccc4c(c3)OCCO4)n2)c1 [Compound 385, N4-(3,4-Ethylenedioxyphenyl)-5-fluoro-N4-methyl-N2-[3-(N-methylamino)carbonylmethyleneoxyphenyl]-2,4-pyrimidinediamine] | – | – | – | – | pIC50 [1, 10]: > 5.00; pIC50 ([1]; tryptase, 8 pt, read-out: LD Tryptase, CHMC, IgE, 8 pt): > 5.00; pIC50 ([2]; tryptase): < 5.00 |
| COc1cc(Nc2ncc(F)c(N(C)c3ccc4c(c3)OCCO4)n2)cc(OC)c1 [Compound 386] | – | – | > 5.00 | < 5.00 | pIC50 [1, 11]: > 5.00 |
| Cc1cc(C)cc(Nc2ncc(F)c(N(C)c3ccc4c(c3)OCCO4)n2)c1 [Compound 387] | – | – | > 5.00 | < 5.00 | – |
| COc1cc(Nc2ncc(F)c(N(C)c3ccc4c(c3)NC(=O)C(C)(C)O4)n2)cc(OC)c1 [Compound 388] | – | – | < 5.00 | < 5.00 | – |
| COc1cc(Nc2nc(Nc3cccc4cc(C(=O)NC(C)(C)CO)[nH]c34)ncc2F)cc(OC)c1 [Compound 389, N4-(3,5-Dimethoxyphenyl)-N2-[2-(N-1,1-dimethyl-2-hydroxyethylamino)carbonylindol-7-yl]-5-fluoro-2,4-pyrimidinediamine] | – | – | – | – | pIC50 [1, 10]: > 5.00; pIC50 ([2]; tryptase): < 5.00 |
| CN(c1ccc2c(c1)OCCO2)c1nc(Cl)ncc1F [Compound 390] | – | – | < 5.00 | < 5.00 | – |
| Cc1cc(C)cc(Nc2ncc(F)c(N(C)c3ccc4c(c3)N(C)C(=O)C(C)(C)O4)n2)c1 [Compound 391] | – | – | > 5.00 | > 5.00 | – |
| COc1ccc(Nc2ncc(F)c(N(C)c3ccc4c(c3)N(C)C(=O)C(C)(C)O4)n2)cc1Cl [Compound 392] | – | – | > 5.00 | > 5.00 | – |
| COc1cc(Nc2ncc(F)c(N(C)c3ccc4c(c3)N(C)C(=O)C(C)(C)O4)n2)cc(OC)c1 [Compound 393] | – | – | > 5.00 | > 5.00 | – |
| COC(=O)c1cc2cc(Nc3ncc(F)c(N(C)c4ccc5c(c4)OCCO5)n3)ccc2o1 [Compound 395] | – | – | > 5.00 | > 5.00 | pIC50 [1, 11]: > 5.00 |
| Cc1cc(C)cc(Nc2ncc(F)c(Nc3ccc4c(c3)N(C)C(=O)C(C)(C)O4)n2)c1 [Compound 396] | – | – | > 5.00 | > 5.00 | pIC50 [1, 11]: > 5.00 |
| COc1cc(Nc2ncc(F)c(Nc3ccc4c(c3)N(C)C(=O)C(C)(C)O4)n2)cc(OC)c1 [Compound 397] | – | – | > 5.00 | > 5.00 | pIC50 [1, 11]: > 5.00 |
| CNC(=O)COc1cccc(Nc2ncc(F)c(N(C)c3cc(OC)cc(OC)c3)n2)c1 [Compound 398, N4-(3,5-Dimethoxyphenyl)-5-fluoro-N4-methyl-N2-[3-(N-methylamino)carbonylmethyleneoxyphenyl]-2,4-pyrimidinediamine] | – | – | – | – | pIC50 [1, 10]: > 5.00; pIC50 ([2]; tryptase): < 5.00 |
| COc1cc(Nc2ncc(F)c(N(C)c3cc(OC)cc(OC)c3)n2)cc(OC)c1 [Compound 400] | – | – | > 5.00 | < 5.00 | – |
| COC(=O)c1cc2cc(Nc3ncc(F)c(N(C)c4cc(OC)cc(OC)c4)n3)ccc2o1 [Compound 401] | – | – | > 5.00 | > 5.00 | – |
